This note sets out measurements from US20080248511A1, “METHODS TO QUENCH LIGHT FROM OPTICAL REACTIONS” (priority 2007, published 2008).

The target of experiment [1] is T1, firefly luciferase (Photinus pyralis, UniProt P08659). As to the kind of experiment: Detergent screen with Tergitol NP-9, firefly luciferase (Example 3). The class given is biochemical. The settings on record: 0.06% quencher in reagent solution; 0.5% Tergitol NP-9. The protocol:
(§1) Unless otherwise specified, materials were obtained from Sigma-Aldrich.
(§2) The firefly luciferase and Renilla luciferase enzymes were diluted as follows. Firefly luciferase was diluted to 14 ng/ml in Delbecco's Minimal Essential (DMEM) medium (Gibco/Invitrogen) containing 0.1% Prionex®. Renilla luciferase was diluted to 10 ng/ml in DMEM medium containing 0.1% Prionex®.
(§3) The luciferase reactions were initiated by adding 50 μl of the firefly luciferase or Renilla luciferase enzyme solution to 50 μl of reagent solution. The reactions were performed as described above. The retained firefly luciferase and Renilla luciferase luminescence as well as the selectivity values for each quencher were calculated (Table 3). The values listed are based on 0.06% quencher in the reagent solution.

The target of experiment [2] is T2, Renilla luciferase (Renilla reniformis, UniProt P27652).
T2 sequence (P27652 1-311): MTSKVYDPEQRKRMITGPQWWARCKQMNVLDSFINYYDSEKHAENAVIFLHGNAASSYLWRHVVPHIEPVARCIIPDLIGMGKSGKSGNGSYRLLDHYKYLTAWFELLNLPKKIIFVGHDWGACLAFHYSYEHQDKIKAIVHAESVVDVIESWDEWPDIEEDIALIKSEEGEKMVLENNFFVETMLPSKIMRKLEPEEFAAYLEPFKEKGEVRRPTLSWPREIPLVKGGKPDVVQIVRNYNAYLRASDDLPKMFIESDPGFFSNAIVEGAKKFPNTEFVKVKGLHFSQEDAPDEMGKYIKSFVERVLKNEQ
In words: Detergent screen with Tergitol NP-9, Renilla luciferase (Example 3). It counts as biochemical. Particulars: 0.5% Tergitol NP-9; for Retained Renilla Luminescence (%): 0.06% quencher in reagent solution; for Selectivity Value: retained firefly / retained Renilla, 0.06% quencher. The protocol: as §1, §2, §3

Experiment [3] addresses T1, firefly luciferase. In words: biochemical. Particulars: 0.5% detergent in Luciferase Assay Reagent; read-out: Retained Firefly Luciferase Luminescence (%). Here is the method: (§4) The retained luminescence for each luciferase was calculated by dividing the luminescence in the presence of the detergent by the luminescence in the absence of the test detergent. The selectivity value for each of the test detergents was determined by dividing the retained firefly luciferase luminescence by the retained Renilla luciferase luminescence.
(§5) A set of detergents (Table 2; Sigma-Aldrich) was added at 0.5% (from a 5% or 10% stock solution) to either Luciferase Assay Reagent (Promega) or Renilla Luciferase Assay Reagent (Promega) and allowed to equilibrate at room temperature.
(§6) The firefly luciferase and Renilla luciferase enzymes were diluted as follows. Firefly luciferase was diluted to 14 ng/ml in Phosphate Buffered Saline (PBS) containing 0.1% of the protein carrier Prionex® (Pentapharm). Renilla luciferase was diluted to 10 ng/ml in 1× Renilla Luciferase Lysis Buffer (Promega) containing 0.1% Prionex®. The Renilla Luciferase Lysis Buffer […] detergent micelles when using the Renilla Luciferase Assay Reagent. In the absence of other detergents, this prevents sequestering of coelenterazine which inhibits Renilla luciferase-mediated luminescence.
(§7) The luciferase reactions were initiated by adding 40 μl of either the firefly or Renilla luciferase enzyme solution to 200 μl of the appropriate reagent solution (firefly luciferase enzyme solution+firefly luciferase reagent solution or Renilla luciferase enzyme solution+Renilla luciferase reagent solution, respectively). The reactions were performed in an opaque white, 96-well plate and luminescence was measured for 0.5 seconds per well using a Turner BioSystems Veritas™ Microplate luminometer. The retained firefly luciferase and Renilla luciferase luminescence, as well as the selectivity values for each detergent, were calculated (Table 2).

The target in experiment [4] is T2, Renilla luciferase. As to the kind of experiment: biochemical. The class given is biochemical. Particulars: for remaining activity at 0.5 %: 0.5% detergent in Renilla Luciferase Assay Reagent, read-out: Retained Renilla Luciferase Luminescence (%); for Selectivity Value: retained firefly / retained Renilla, 0.5% detergent. The protocol: as §4, §5, §6, §7
The target of experiment [5] is T2, Renilla luciferase. As to the kind of experiment: Detergent titration with Tergitol NP-9, digitonin or no lysing agent, Renilla luciferase (Example 4). The class given is biochemical. The settings on record: for remaining activity at 0.0005 % / remaining activity at 0.005 % / remaining activity at 0.05 %: read-out: Relative Renilla Luc Intensity. The protocol: Renilla luciferase-mediated luminescence was measured from samples containing 9.6 mM phosphate buffer pH 6.8, 2.7 mM KCl, 137 mM NaCl (in PBS), 0.1% gelatin, 75 nM coelentrazine (Promega) and 10.2 ng/ml Renilla luciferase. Reactions contained either no lysing agent, 0.5% Tergitol NP-9 or 20 μg/ml digitonin. The detergents to be tested were titrated to 0.05%, 0.005% or 0.0005% in the reactions prior to the addition of the Renilla luciferase. Renilla luciferase-mediated luminescence was measured as described herein.

Experiment [6] addresses T1, firefly luciferase. As to the kind of experiment: Detergent titration with Tergitol NP-9, digitonin or no lysing agent, firefly luciferase (Example 4). The class given is biochemical. Particulars: read-out: Relative Firefly Luc Intensity; for remaining activity at 0.0005 %: 0.0005% detergent; for remaining activity at 0.005 %: 0.0050% detergent; for remaining activity at 0.05 %: 0.0500% detergent. The protocol:
For measurement of firefly luciferase-mediated luminescence, a solution containing 110 mM HEPES pH 7.5, 8 mM MgSO4, 0.05% gelatin, 7.35 ng/ml firefly luciferase (QuantiLum® Luciferase; Promega) and the content of the Steady-Glo Luciferase Substrate (Promega) at the equivalent of 1×, As in the Renilla luciferase reactions, reactions contained either no lysing agent, 0.5% Tergitol NP-9 or 20 μg/ml digitonin. The same detergents were titrated as described above and firefly luciferase-mediated luminescence was measured.

Where [7] appears, read: 0.0500% (w:v) detergent, Terg (0.5% Tergitol NP-9).
[8] abbreviates: 0.0500% detergent, Dig (20 μg/ml digitonin).
[9] abbreviates: 0.0500% detergent, Water (no lysing agent).

Read-outs that look alike come from different tables or passages of the source.

T1 sequence (P08659 whole entry): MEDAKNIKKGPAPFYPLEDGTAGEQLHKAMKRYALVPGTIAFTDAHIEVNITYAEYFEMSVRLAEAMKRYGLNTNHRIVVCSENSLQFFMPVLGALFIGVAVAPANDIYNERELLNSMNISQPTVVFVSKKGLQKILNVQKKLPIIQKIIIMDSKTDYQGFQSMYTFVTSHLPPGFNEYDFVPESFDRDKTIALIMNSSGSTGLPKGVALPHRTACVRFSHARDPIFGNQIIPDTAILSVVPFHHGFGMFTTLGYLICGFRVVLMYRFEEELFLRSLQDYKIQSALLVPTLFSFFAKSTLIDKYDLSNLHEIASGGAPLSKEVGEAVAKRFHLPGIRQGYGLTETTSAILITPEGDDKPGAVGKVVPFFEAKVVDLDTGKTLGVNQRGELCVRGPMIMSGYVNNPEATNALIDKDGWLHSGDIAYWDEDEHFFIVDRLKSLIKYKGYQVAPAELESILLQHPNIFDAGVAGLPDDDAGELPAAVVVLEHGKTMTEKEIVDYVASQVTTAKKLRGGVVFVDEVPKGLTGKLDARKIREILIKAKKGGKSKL

`CCCCCCCCCCCCOCC[N+](C)(C)Cc1ccccc1.[Cl-]` [Benzyldimethyl(2-dodecyloxethyl)ammonium chloride]: at firefly luciferase [1], the “Retained Firefly Luminescence (%)” value is reported as 174.0%. At Renilla luciferase [2], the “Retained Renilla Luminescence (%)” value stood at 20.5% and the “Selectivity Value” is listed as 8.5.
The matching figures for “N-benzyl-N,N-dimethylloctan-1-aminium bromide”: 134%, 13% and 10.3.
Turning to `CCCCC[N+](CCCCC)(CCCCC)CCCCC.[Br-]` [Tetrapentylammonium bromide], the remaining activity at 0.5 % is 80.9% on firefly luciferase [3] and 37% on Renilla luciferase [4]. Further, on Renilla luciferase [4], the “Selectivity Value” was 2.2. The “Selective Inhibition (Ff Luc Inh/Ren Luc Inh)” value at Renilla luciferase [5] (0.0005% detergent, Dig) came to 1.0; at Renilla luciferase [5] (0.0005% detergent, Terg), 1.0; on Renilla luciferase [5] (0.0005% detergent, Water) it was 1.0; on Renilla luciferase [5] (0.0050% detergent, Dig), 1.2; at Renilla luciferase [5] (0.0050% detergent, Terg) it was 1.2; on Renilla luciferase [5] (0.0050% detergent, Water), 1.2. In addition, the “Selective Inhibition (Ff Luc Inh/Ren Luc Inh)” value on Renilla luciferase [5] (0.0500% detergent, Dig) was determined as 2.9; on Renilla luciferase [5] (0.0500% detergent, Terg), 2.5; at Renilla luciferase [5] (0.0500% detergent, Water), 3.0. Besides, the remaining activity at 0.0005 % is 99% at Renilla luciferase [5] (0.0005% detergent, Dig); 96% at Renilla luciferase [5] (0.0005% detergent, Terg); 98% on Renilla luciferase [5] (0.0005% detergent, Water); 100% at firefly luciferase [6] (Dig); 97% on firefly luciferase [6] (Terg); 98% at firefly luciferase [6] (Water). For the same molecule, the remaining activity at 0.005 % on Renilla luciferase [5] (0.0050% detergent, Dig) turned out to be 87%; at Renilla luciferase [5] (0.0050% detergent, Terg), 81%; at Renilla luciferase [5] (0.0050% detergent, Water) it was 83%; on firefly luciferase [6] (Dig) it was 104%; on firefly luciferase [6] (Terg), 96%; on firefly luciferase [6] (Water) it was 101%. Further, the remaining activity at 0.05 % at Renilla luciferase [5] (setting [7]) came out at 38%; at Renilla luciferase [5] (setting [8]), 40%; at Renilla luciferase [5] (setting [9]), 37%; at firefly luciferase [6] (Dig (20 μg/ml digitonin)) it was 117%; on firefly luciferase [6] (Terg (0.5% Tergitol NP-9)), 95%; on firefly luciferase [6] (Water (no lysing agent)) it was 110%.
Turning to `CCCCCCCCCCCC[N+](C)(C)C.[Br-]` [Dodecyltrimethylammonium bromide], the remaining activity at 0.5 % was 42.1% at firefly luciferase [3] and 1.74% on Renilla luciferase [4]. Further, at Renilla luciferase [4], the “Selectivity Value” was 24.2. The “Selective Inhibition (Ff Luc Inh/Ren Luc Inh)” value is on record as 1.1 at Renilla luciferase [5] (0.0005% detergent, Dig); 1.0 at Renilla luciferase [5] (0.0005% detergent, Terg); 1.1 at Renilla luciferase [5] (0.0005% detergent, Water); 2.3 at Renilla luciferase [5] (0.0050% detergent, Dig); 1.2 at Renilla luciferase [5] (0.0050% detergent, Terg); 2.5 on Renilla luciferase [5] (0.0050% detergent, Water). For the same molecule, the “Selective Inhibition (Ff Luc Inh/Ren Luc Inh)” value on Renilla luciferase [5] (0.0500% detergent, Dig) was 98; at Renilla luciferase [5] (0.0500% detergent, Terg) it was 8; at Renilla luciferase [5] (0.0500% detergent, Water), 110. For the same molecule, the remaining activity at 0.0005 % on Renilla luciferase [5] (0.0005% detergent, Dig) amounted to 96%; on Renilla luciferase [5] (0.0005% detergent, Terg), 98%; on Renilla luciferase [5] (0.0005% detergent, Water), 95%; at firefly luciferase [6] (Dig) it was 103%; at firefly luciferase [6] (Terg) it was 96%; at firefly luciferase [6] (Water), 107%. For the same molecule, the remaining activity at 0.005 % came to 55% at Renilla luciferase [5] (0.0050% detergent, Dig); 76% at Renilla luciferase [5] (0.0050% detergent, Terg); 51% on Renilla luciferase [5] (0.0050% detergent, Water); 128% at firefly luciferase [6] (Dig); 93% on firefly luciferase [6] (Terg); 128% at firefly luciferase [6] (Water). For the same molecule, the remaining activity at 0.05 % at Renilla luciferase [5] (setting [7]) was 9%; at Renilla luciferase [5] (setting [8]) it was 2%; on Renilla luciferase [5] (setting [9]), 2%; on firefly luciferase [6] (Dig (20 μg/ml digitonin)) it was 184%; at firefly luciferase [6] (Terg (0.5% Tergitol NP-9)) it was 71%; at firefly luciferase [6] (Water (no lysing agent)), 197%.
In the case of `Cc1cc(C)c(C[N+](C)(C)C)cc1C.[Br-]` [Trimethyl(2,4,5-Trimethylbenzyl)ammonium bromide], the remaining activity at 0.5 % on firefly luciferase [3] worked out at 0.06%; on Renilla luciferase [4], 1.87%. The “Selective Inhibition (Ff Luc Inh/Ren Luc Inh)” value at Renilla luciferase [5] (0.0005% detergent, Dig) was 1.8; on Renilla luciferase [5] (0.0005% detergent, Terg), 1.0; at Renilla luciferase [5] (0.0005% detergent, Water) it was 1.9; at Renilla luciferase [5] (0.0050% detergent, Dig), 18; on Renilla luciferase [5] (0.0050% detergent, Terg), 1.2; at Renilla luciferase [5] (0.0050% detergent, Water), 17. Also, the “Selective Inhibition (Ff Luc Inh/Ren Luc Inh)” value on Renilla luciferase [5] (0.0500% detergent, Dig) amounted to 47; on Renilla luciferase [5] (0.0500% detergent, Terg) it was 2.9; on Renilla luciferase [5] (0.0500% detergent, Water) it was 50. In addition, the remaining activity at 0.0005 % on Renilla luciferase [5] (0.0005% detergent, Dig) was 63%; on Renilla luciferase [5] (0.0005% detergent, Terg) it was 92%; on Renilla luciferase [5] (0.0005% detergent, Water), 62%; at firefly luciferase [6] (Dig), 116%; at firefly luciferase [6] (Terg), 95%; on firefly luciferase [6] (Water) it was 116%. Further, the remaining activity at 0.005 % is 3% at Renilla luciferase [5] (0.0050% detergent, Dig); 67% on Renilla luciferase [5] (0.0050% detergent, Terg); 3% at Renilla luciferase [5] (0.0050% detergent, Water); 52% at firefly luciferase [6] (Dig); 83% at firefly luciferase [6] (Terg); 54% on firefly luciferase [6] (Water). In addition, the remaining activity at 0.05 % at Renilla luciferase [5] (setting [7]) was determined as 4%; on Renilla luciferase [5] (setting [8]), 0.03%; at Renilla luciferase [5] (setting [9]) it was 0.03%; on firefly luciferase [6] (Dig (20 μg/ml digitonin)) it was 1%; on firefly luciferase [6] (Terg (0.5% Tergitol NP-9)) it was 12%; at firefly luciferase [6] (Water (no lysing agent)), 1%.
